Assay results taken from patent US8288418B2, “Benzimidazole derivatives and their use for modulating the GABAA receptor complex” (Neurosearch A/S, priority 2006, dated 2012).

Target: GABAA receptor complex, benzodiazepine modulatory unit (cerebral cortex membranes)
Experiment: In vitro inhibition of 3H-flunitrazepam (3H-FNM) binding
Design: species or system rat
Settings: inhibition of specific binding of 3H-FNM (1 nM), cerebral cortex membranes of male Wistar rats, 40 min at 2° C.
Protocol: In vitro Inhibition of ^3H-flunitrazepam (^3H-FNM) Binding
The GABA recognition site and the benzodiazepine modulatory unit can selectively be labelled with ^3H-flunitrazepam.
Preparations are performed at 0-4° C. unless otherwise indicated. Cerebral cortex from male Wistar rats (150-200 g) is homogenised for 5-10 sec in 20 ml Tris-HCl (30 mM, pH 7.4) using an Ultra-Turrax homogeniser. The suspension is centrifuged at 27,000×g for 15 min and the pellet is washed three times with buffer (centrifuged at 27,000×g for 10 min). The washed pellet is homogenized in 20 ml of buffer and incubated on a water bath (37° C.) for 30 min to remove endogenous GABA and then centrifuged for 10 min at 27,000×g. The pellet is then homogenized in buffer and centrifuged for 10 min at 27,000×g. The final pellet is resuspended in 30 ml buffer and the preparation is frozen and stored at −20° C.
The membrane preparation is thawed and centrifuged at 2° C. for 10 min at 27,000×g. The pellet is washed twice with 20 ml 50 mM Tris-citrate, pH 7.1 using an Ultra-Turrax homogeniser and centrifuged for 10 min at 27,000×g. The final pellet is resuspended in 50 mM Tris-citrate, pH 7.1 (500 ml buffer per g of original tissue), and then used for binding assays. Aliquots of 0.5 ml tissue are added to 25 μl of test solution and 25 μl of ^3H-FNM (1 nM, final concentration), mixed and incubated for 40 min at 2° C. Non-specific binding is determined using Clonazepam (1 μM, final concentration). After incubation the samples are added 5 ml of ice-cold buffer and poured directly onto Whatman GF/C glass fibre filters under suction and immediately washed with 5 ml ice-cold buffer. The amount of radioactivity on the filters is determined by conventional liquid scintillation counting. Specific binding is total binding minus non-specific binding.
25-75% inhibition of specific binding must be obtained, before calculation of an IC50.
The test value will be given as IC50 (the concentration (μM) of the test substance which inhibits the specific binding of ^3H-FNM by 50%).
Co is specific binding in control assays, and
Cx is the specific binding in the test assay.
(The calculations assume normal mass-action kinetics).

Row | IC50 | Structure (SMILES)
1 | 21 nM | COc1ccccc1-c1cccc(-n2cnc3cc(-c4cc[nH]n4)ccc32)c1 [Compound 9ak, 5-(1H-3-Pyrazolyl)-1-(2′-methoxy-biphenyl-3-yl)-1H-benzoimidazole]
2 | 0.65 nM | CC(C)(O)c1ccc2c(c1)ncn2-c1cccc(-c2ccccc2C#N)c1 [Compound 9aac, 3′-[5-(1-Hydroxy-1-methyl-ethyl)-benzoimidazol-1-yl]-biphenyl-2-carbonitrile]
3 | 6.2 nM | C[C@@H](O)c1ccc2c(c1)ncn2-c1cccc(-c2cccnc2F)c1 [Compound 9aba, (R)-1-{1-[3-(2-Fluoro-pyridin-3-yl)-phenyl]-1H-benzoimidazol-5-yl}-ethanol]
4 | 4 nM | CC(C)(O)c1ccc2c(c1)ncn2-c1cccc(-c2cccnc2F)c1 [Compound 9ada, 2-{1-[3-(2-Fluoro-pyridin-3-yl)-phenyl]-1H-benzoimidazol-5-yl}-propan-2-ol]
5 | 1.4 nM | COc1cc(F)ccc1-c1cccc(-n2cnc3cc(C(F)(F)F)ccc32)c1 [Compound 9a, 1-(4′-Fluoro-2′-methoxy-biphenyl-3-yl)-5-trifluoromethyl-1H-benzoimidazole]
6 | 0.95 nM | N=C(NO)c1ccc2c(c1)ncn2-c1cccc(-c2ccccc2Cl)c1 [Compound 12ha, 1-(2′-Chloro-biphenyl-3-yl)-N-hydroxy-1H-benzoimidazole-5-carboxamidine]

Tested on: not given
Experiment: not given
Settings: not given

Row | melting point | Structure (SMILES)
7 | 133 to 137 °C | CC(O)c1ccc2c(c1)ncn2-c1cccc(-c2cccnc2O)c1 (stereo not shown) [Compound 16, 3-{3-[5-(1-Hydroxy-ethyl)-benzoimidazol-1-yl]-phenyl}-pyridin-2-ol]
8 | 95.5 °C | COc1cc(F)ccc1-c1cccc(-n2cnc3cc(C(F)(F)F)ccc32)c1 [Compound 9a, 1-(4′-Fluoro-2′-methoxy-biphenyl-3-yl)-5-trifluoromethyl-1H-benzoimidazole]
9 | 147 to 150 °C | CC(C)OC(=O)c1ccc2c(c1)ncn2-c1cccc(-c2cccnc2Cl)c1 [Compound 19, 1-[3-(2-Chloro-pyridin-3-yl)-phenyl]-1H-benzoimidazole-5-carboxylic acid isopropyl ester]
10 | 220 to 223 °C | CC(=NO)c1ccc2c(c1)ncn2-c1cccc(-c2cccnc2O)c1 [Compound 15, 1-{1-[3-(2-Hydroxy-pyridin-3-yl)-phenyl]-1H-benzoimidazol-5-yl}-ethanone oxime]
